Test results from paper PMC7422938 (Chemical research in toxicology, 2020).
Entries after “also recorded” stand apart in the source; their conditions may differ.

Molecular target: T1, microsomal recombinant human cytochrome P450 2A6 (CYP2A6) (Homo sapiens, UniProt P11509)
T1 sequence (P11509 1-494): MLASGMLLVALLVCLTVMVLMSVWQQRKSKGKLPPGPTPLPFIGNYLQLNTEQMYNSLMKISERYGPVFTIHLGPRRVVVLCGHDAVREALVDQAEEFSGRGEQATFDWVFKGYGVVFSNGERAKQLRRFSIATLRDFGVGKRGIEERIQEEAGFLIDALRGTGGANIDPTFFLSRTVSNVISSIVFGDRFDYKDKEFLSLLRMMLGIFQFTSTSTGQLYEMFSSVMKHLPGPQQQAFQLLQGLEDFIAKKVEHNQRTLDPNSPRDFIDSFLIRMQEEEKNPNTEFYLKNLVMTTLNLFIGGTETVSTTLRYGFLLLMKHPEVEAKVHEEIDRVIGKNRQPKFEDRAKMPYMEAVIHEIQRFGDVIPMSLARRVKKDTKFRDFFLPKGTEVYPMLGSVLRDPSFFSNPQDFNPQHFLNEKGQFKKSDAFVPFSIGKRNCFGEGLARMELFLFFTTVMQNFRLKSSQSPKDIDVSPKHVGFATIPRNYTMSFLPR
Test: Vivid fluorescence-based CYP2A6 inhibition screening
Assay type: biochemical

| Structure (SMILES) | IC50 | CYP2A6 inhibition (flavoring agent at 500 μM) | CYP2A6 inhibition (flavoring agent up to 500 μM (highest concentration)) |
| --- | --- | --- | --- |
| O=Cc1ccccc1 [Benzaldehyde, benzaldehyde] | 3 µM | – | – |
| O=C/C=C/c1ccccc1 [Cinnamaldehyde, trans-cinnamaldehyde] | 1.1 µM | – | – |
| CCOc1cc(C=O)ccc1O [Ethyl vanillin, ethyl-vanillin] | 69.4 µM | near-maximal inhibition | – |
| CC(=O)OCCC(C)C [Isoamyl Acetate, isoamyl acetate] | > 500 µM | – | negligible inhibition; also recorded: no inhibition |
| COc1cc(C=O)ccc1O [Vanillin, vanillin] | 70 µM | near-maximal inhibition | – |
